Experiment [1] concerns normal individual plasma. Nature of the experiment: Coagulation kinetic analyses and COHF assay (TTG increase after CORM-2). Format: biochemical, human. Particulars: CORM-2 100 μM; based on individual, not group mean responses. The protocol:
Plasma was rapidly thawed at 37° C. on the day of experimentation. The final volume for all subsequently described plasma sample mixtures was 359.4 μl. […] Plasma sample mixtures were placed in a disposable cup in a computer-controlled thrombelastograph® hemostasis system (Model 5000, Haemoscope Corp., Niles, Ill., USA), with addition of CaCl2 as the last step to initiate clotting. Data were collected at 37° C. for 15 min. The following elastic modulus-based parameters previously described (Benk et al., Eur J Cardio-Thorac Surg 44:551-558 (2013); Owens Clin Biochem 43:1183-1188 (2010); Balla et al., Antioxid Redox Signal 9:2119-2137 (2007); Nielsen et al., Blood Coagul Fibrinolysis 20:377-380 (2009); Nielsen et al., Blood Coagul Fibrinolysis 22:443-447 (2011); Nielsen et al., Blood Coagul Fibrinolysis 22:756-759 (2011); Nielsen et al., Blood Coagul Fibrinolysis 24:405-410 (2013)) were determined: time to maximum rate of thrombus generation (TMRTG): this is the time interval (min) observed prior to maximum speed of clot growth; maximum rate of thrombus generation (MRTG): this is the maximum velocity of clot growth observed (dynes/cm^2/sec); and total thrombus generation (TTG, dynes/cm^2), the final viscoelastic resistance observed after clot formation. […]

The subject of experiment [2] is fibrin fiber network of healthy platelet rich plasma (PRP). Particulars: PRP exposed to compound, then thrombin; SEM.
Protocol: SEM-Based Analyses. […] Blood was obtained from three healthy, female subjects after written, informed consent was obtained. […] Their plasma ferritin (range 2.6-3.3 g/L), serum ferritin (range 13-28 ng/ml) and iron saturation of ferritin (range 19-33%) were normal. As noted previously, forty ml of whole blood was obtained, anticoagulated (sodium citrate, 9 parts blood to 1 part 0.105M sodium citrate), and platelet rich plasma (PRP) was generated by centrifugation of blood at 1250×g for 2 min (Nielsen et al., Blood Coagul Fibrinolysis 25:695-702 (2014); Nielsen et al., Blood Coagul Fibrinolysis 25:845-50 (2014)). […]
The cover slips were placed in 0.075 M PBS on a shaker and washed for 20 minutes. […] Once the samples had been coated they were analyzed with a scanning electron microscope (Zeiss ULTRA plus FEG SEM, Carl Zeiss Microscopy GmbH, Jena, Germany).
After visualization of the fibrin networks with SEM, micrographs were obtained at 40,000 times machine magnification. […] One fiber was randomly selected out of every block of the grid, ensuring that fiber measurements were not duplicated, and that fibers were systematically assessed to prevent observer bias (Pretorius Ultrastruct Pathol 35(4):150-154 (2001); Pretorius et al., Blood Coagul Fibrinolysis 22(8):696-700 (2011)). […] From each sample, 50 fibers were measured.
Experiment [3] relates to normal pooled plasma. Nature of the experiment: Concentration-response of FeCl3 on reaction time (R), ROTEM delta thromboelastometry. The class given is biochemical, human. Particulars: 2-10 μM FeCl3. As to the method:
First, a concentration-response relationship of iron concentration and reaction time (R, defined as 2 mm clot strength; this is also known as clotting time in thromboelastometric analyses) was determined. The rationale for using R time was that it is the first indication of the onset of coagulation, is used in both thrombelastographic and thromboelastometric systems, and was anticipated to quickly and easily detect iron-mediated enhancement of coagulation based on previous work. This concentration-response relationship was generated with a ROTEM® delta hemostasis system (Tem Innovations GmbH, Munich, Germany) generously provided by the manufacturer. All disposable cups/pins and reagents were also provided by Tem Innovations. Plasma was rapidly thawed at 37° C. on the day of experimentation. […] After 3 min or more of incubation at room temperature, 320 μl of these iron-exposed plasmas were subsequently placed in a disposable cup, with subsequent addition of 20 μl of 200 mM CaCl2. The complete sample was mixed by pipette once, and the reaction commenced at 37° C. The R values were subsequently recorded.

Experiment [4] deals with normal pooled plasma. The experiment in a line: Effect of FeCl3 and deferoxamine chelation on reaction time (R), thrombelastograph. The class given is biochemical, human. Particulars: FeCl3 10 μM; for reaction time: median (1st, 3rd quartile). The protocol:
Thrombelastograph-Based Analyses. All thrombelastograph-based experiments were performed at the University of Arizona. Frozen, citrate anticoagulated normal pooled plasma was obtained from a commercial vendor (George King Bio-Medical, Overland Park, Kans., USA) for use in subsequently described experimentation. […] Deferoxamine was obtained from a commercial vendor (Cayman Chemical Company, Ann Arbor, Mich., USA). […] Then, 336 μl of either plasma mixture was placed in a disposable cup in a computer-controlled thrombelastograph® hemostasis system (Model 5000, Haemoscope Corp., Niles, Ill., USA). […] Thus, there were four conditions: no deferoxamine, no FeCl3, (Control), deferoxamine, no FeCl3 (deferoxamine); no deferoxamine, FeCl3 (FeCl3); and finally, FeCl3 followed by deferoxamine (FeCl3+Deferoxamine). There were six replicates per condition. Thereafter, 20 μl of 200 mM CaCl2 was added as the last step to initiate clotting. Data were collected at 37° C. until R was recorded. […] There were six replicates per condition. An aliquot of 340 μl of each of the four conditions was placed into thrombelastographic cups and 20 μl of 200 mM CaCl2 was added to initiate clotting. Data were collected at 37° C. until R was recorded. As R values varied between experiments, and a fixed number of channels were available (n=4), plasma was incubated at room temperature between 45-60 min prior to initiation of coagulation. The third series of experiments was designed to decrease incubation time by increasing temperature and deferoxamine concentration without compromising the ability to detect iron-mediated changes in R values. […] The mixtures were mixed with the disposable pin, and allowed to incubate for 15 min at 37° C. Clotting was initiated by addition of 20 μl of 200 mM CaCl2 and data collected at 37° C. until R was recorded. A total of six replicates of the four experimental conditions were analyzed.

Two molecules from US10012659B2, “Methods for diagnosing iron-related pathologies” (priority 2014, dated 2018) can be followed below.

SMILES strings stand for the structures. Marks after values point to notes of the source that are not given here.

Regarding `[C-]#[O+].[C-]#[O+].[C-]#[O+].[C-]#[O+].[C-]#[O+].[C-]#[O+].[Cl][Ru][Cl].[Cl][Ru][Cl]` [CORM-2, tricarbonyldichlororuthenium (II) dimer], in experiment [1], the “normal individual increase in TTG secondary to CORM-2 exposure” value is 89%. In experiment [2], the “decrease in average fibrin fiber width vs normal subjects (105±3 nm)” value amounted to 43%.

Consider `[Cl][Fe]([Cl])[Cl]` [FeCl3, ferric chloride], for which the “R values vs plasma without FeCl3 addition” value in experiment [3] is “significantly smaller”. For the same molecule, in experiment [4] (45-60 minute incubation), the “FeCl3-mediated decrease in R values” came to 72%. Further, the “reduction in R values compared to control plasma values” in experiment [4] (3 min incubation series) was 54%. The reaction time in experiment [4] (Fifteen min incubation at 37° C., deferoxamine 2.78 mM) is listed as 4.6 (4.4, 6.0)*† min; in experiment [4] (Forty-five to sixty min incubation at room temperature, deferoxamine 1 mM), 5.0 (4.9, 5.1)*† min; in experiment [4] (Three min incubation at room temperature, deferoxamine 1 mM) it was 5.9 (5.8, 6.4)*† min. Further, the “decrease in average fibrin fiber width vs normal subjects (105±3 nm)” value in experiment [2] amounted to 58%.
